# Assays:
# [1] = molecular target: T1, BRD4 (BD1) (Homo sapiens, UniProt O60885); assay: Binding assay BRD4/acetylated peptide H4 (TR-FRET protein-protein interaction assay)
# T1 construct: with relatively long constructs also being possible, preferably amino acids 44-168; made in house; host or cells: E. coli
# Summary of the method: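 His6-BRD4 BD1 (aa 67-152, E. coli), usually 10 nM, with biotinylated tetra-acetylated H4 peptide in HEPES pH 7.5 buffer; 11 compound concentrations 0.1 nM–20 μM in duplicate, 10 min preincubation, 1 h at 22 °C then ≥3 h at 4 °C. TR-FRET 665/620 ratio; IC50 by 4-parameter fit.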
# [2] = test system: MOLM-13 cells; assay: Cell proliferation assay (alamarBlue), MOLM-13; format: cell-based; settings: Homo sapiens, 96 hours incubation, inhibition of cell proliferation
# Summary of the method: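 Cells in RPMI1640/10% FCS read by alamarBlue fluorescence (ex 530, em 590 nm) after overnight 37 °C incubation, then treated at 1E-5 to 1E-8 M for 96 h. Pre-treatment values subtracted from endpoint values and compared with buffer-only wells; IC50 is 50% proliferation inhibition.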
IC50 [1],IC50 [2],Structure (SMILES)
180 nM,850 nM,"CNC(=O)N1N=C(c2ccc(-c3ccccc3Cl)cc2)c2cc(OC)c(OC)cc2CC1C (racemic) [Example 92, (±)-1-(2′-chlorobiphenyl-4-yl)-7,8-dimethoxy-N,4-dimethyl-4,5-dihydro-3H-2,3-benzodiazepine-3-carboxamide]"
120 nM,460 nM,"CNC(=O)N1N=C(c2ccc(-c3ccccc3F)cc2)c2cc(OC)c(OC)cc2CC1C (racemic) [Example 93, (±)-1-(2′-fluorobiphenyl-4-yl)-7,8-dimethoxy-N,4-dimethyl-4,5-dihydro-3H-2,3-benzodiazepine-3-carboxamide]"
40 nM,380 nM,"CNC(=O)N1N=C(c2ccc(-c3ccc(CO)cc3)cc2)c2cc(OC)c(OC)cc2CC1C (racemic) [Example 94, (±)-1-[4′-(hydroxymethyl)biphenyl-4-yl]-7,8-dimethoxy-N,4-dimethyl-4,5-dihydro-3H-2,3-benzodiazepine-3-carboxamide]"
630 nM,2760 nM,"CNC(=O)N1N=C(c2ccc(-c3ccc(OC(F)(F)F)cc3)cc2)c2cc(OC)c(OC)cc2CC1C (racemic) [Example 95, (±)-7,8-dimethoxy-N,4-dimethyl-1-[4′-(trifluoromethoxy)biphenyl-4-yl]-4,5-dihydro-3H-2,3-benzodiazepine-3-carboxamide]"
50 nM,450 nM,"CNC(=O)N1N=C(c2ccc(-c3cccc(C(=O)N4CCCCC4)c3)cc2)c2cc(OC)c(OC)cc2CC1C (racemic) [Example 97, (±)-7,8-dimethoxy-N,4-dimethyl-1-[3′-(piperidin-1-ylcarbonyl)biphenyl-4-yl]-4,5-dihydro-3H-2,3-benzodiazepine-3-carboxamide]"
30 nM,270 nM,"CNC(=O)N1N=C(c2ccc(-c3cccc(C(=O)N4CCOCC4)c3)cc2)c2cc(OC)c(OC)cc2CC1C (racemic) [Example 98, (±)-7,8-dimethoxy-N,4-dimethyl-1-[3′-(morpholin-4-ylcarbonyl)biphenyl-4-yl]-4,5-dihydro-3H-2,3-benzodiazepine-3-carboxamide]"
30 nM,270 nM,"CNC(=O)N1N=C(c2ccc(-c3cccc(C(=O)NC4CC4)c3)cc2)c2cc(OC)c(OC)cc2CC1C (racemic) [Example 99, (±)-1-[3′-(cyclopropylcarbamoyl)-biphenyl-4-yl]-7,8-dimethoxy-N,4-dimethyl-4,5-dihydro-3H-2,3-benzodiazepine-3-carboxamide]"
60 nM,650 nM,"CNC(=O)N1N=C(c2ccc(-c3ccnn3C)cc2)c2cc(OC)c(OC)cc2CC1C (racemic) [Example 101, (±)-7,8-dimethoxy-N,4-dimethyl-1-[4-(1-methyl-1H-pyrazol-5-yl)phenyl]-4,5-dihydro-3H-2,3-benzodiazepine-3-carboxamide]"
90 nM,960 nM,"CNC(=O)N1N=C(c2ccc(-c3ccc([N+](=O)[O-])cc3)cc2)c2cc(OC)c(OC)cc2CC1C (racemic) [Example 102, (±)-7,8-dimethoxy-N,4-dimethyl-1-(4′-nitrobiphenyl-4-yl)-4,5-dihydro-3H-2,3-benzodiazepine-3-carboxamide]"
40 nM,350 nM,"CNC(=O)N1N=C(c2ccc(-c3cccnc3)cc2)c2cc(OC)c(OC)cc2CC1C (racemic) [Example 103, (±)-7,8-dimethoxy-N,4-dimethyl-1-[4-(pyridin-3-yl)phenyl]-4,5-dihydro-3H-2,3-benzodiazepine-3-carboxamide]"
30 nM,260 nM,"CNC(=O)N1N=C(c2ccc(-c3cnccc3OC)cc2)c2cc(OC)c(OC)cc2CC1C (racemic) [Example 104, (±)-7,8-dimethoxy-1-[4-(4-methoxypyridin-3-yl)phenyl]-N,4-dimethyl-4,5-dihydro-3H-2,3-benzodiazepine-3-carboxamide]"
80 nM,670 nM,"CNC(=O)N1N=C(c2ccc(-c3cccc(C#N)c3)cc2)c2cc(OC)c(OC)cc2CC1C (racemic) [Example 105, (±)-1-(3′-cyanobiphenyl-4-yl)-7,8-dimethoxy-N,4-dimethyl-4,5-dihydro-3H-2,3-benzodiazepine-3-carboxamide]"
90 nM,2550 nM,"CNC(=O)N1N=C(c2ccc(-c3ccc(C#N)cc3)cc2)c2cc(OC)c(OC)cc2CC1C (racemic) [Example 106, (±)-1-(4′-cyanobiphenyl-4-yl)-7,8-dimethoxy-N,4-dimethyl-4,5-dihydro-3H-2,3-benzodiazepine-3-carboxamide]"
260 nM,630 nM,"CNC(=O)N1N=C(c2ccc(-c3ccccc3OC(F)(F)F)cc2)c2cc(OC)c(OC)cc2CC1C (racemic) [Example 107, (±)-7,8-dimethoxy-N,4-dimethyl-1-[2′-(trifluoromethoxy)biphenyl-4-yl]-4,5-dihydro-3H-2,3-benzodiazepine-3-carboxamide]"
60 nM,1560 nM,"CNC(=O)N1N=C(c2ccc(-c3ccc(S(C)(=O)=O)cc3)cc2)c2cc(OC)c(OC)cc2CC1C (racemic) [Example 108, (±)-7,8-dimethoxy-N,4-dimethyl-1-[4′-(methylsulphonyl)biphenyl-4-yl]-4,5-dihydro-3H-2,3-benzodiazepine-3-carboxamide]"
50 nM,1160 nM,"CNC(=O)N1N=C(c2ccc(-c3ccccc3C#N)cc2)c2cc(OC)c(OC)cc2CC1C (racemic) [Example 109, (±)-1-(2′-cyanobiphenyl-4-yl)-7,8-dimethoxy-N,4-dimethyl-4,5-dihydro-3H-2,3-benzodiazepine-3-carboxamide]"
60 nM,360 nM,"CNC(=O)N1N=C(c2ccc(-c3ccc(N4CCOCC4)cc3)cc2)c2cc(OC)c(OC)cc2CC1C (racemic) [Example 110, (±)-7,8-dimethoxy-N,4-dimethyl-1-[4′-(morpholin-4-yl)biphenyl-4-yl]-4,5-dihydro-3H-2,3-benzodiazepine-3-carboxamide]"
80 nM,810 nM,"CNC(=O)N1N=C(c2ccc(-c3cncnc3)cc2)c2cc(OC)c(OC)cc2CC1C (racemic) [Example 111, (±)-7,8-dimethoxy-N,4-dimethyl-1-[4-(pyrimidin-5-yl)phenyl]-4,5-dihydro-3H-2,3-benzodiazepine-3-carboxamide]"
80 nM,630 nM,"CNC(=O)N1N=C(c2ccc(-c3ccccc3CO)cc2)c2cc(OC)c(OC)cc2CC1C (racemic) [Example 112, (±)-1-[2′-(hydroxymethyl)biphenyl-4-yl]-7,8-dimethoxy-N,4-dimethyl-4,5-dihydro-3H-2,3-benzodiazepine-3-carboxamide]"
40 nM,1420 nM,"CNC(=O)N1N=C(c2ccc(-c3cccc(C(=O)NCCN(C)C)c3)cc2)c2cc(OC)c(OC)cc2CC1C (racemic) [Example 113, (±)-1-(3′-{[2-(dimethylamino)ethyl]carbamoyl}biphenyl-4-yl)-7,8-dimethoxy-N,4-dimethyl-4,5-dihydro-3H-2,3-benzodiazepine-3-carboxamide]"
40 nM,300 nM,"CNC(=O)N1N=C(c2ccc(-c3cccc(S(N)(=O)=O)c3)cc2)c2cc(OC)c(OC)cc2CC1C (racemic) [Example 114, (±)-7,8-dimethoxy-N,4-dimethyl-1-(3′-sulphamoylbiphenyl-4-yl)-4,5-dihydro-3H-2,3-benzodiazepine-3-carboxamide]"
50 nM,460 nM,"CNC(=O)N1N=C(c2ccc(-c3ccc(S(=O)(=O)NC)cc3)cc2)c2cc(OC)c(OC)cc2CC1C (racemic) [Example 115, (±)-7,8-dimethoxy-N,4-dimethyl-1-[4′-(methylsulphamoyl)biphenyl-4-yl]-4,5-dihydro-3H-2,3-benzodiazepine-3-carboxamide]"
70 nM,490 nM,"CNC(=O)N1N=C(c2ccc(-c3cccn3C)cc2)c2cc(OC)c(OC)cc2CC1C (racemic) [Example 116, (±)-7,8-dimethoxy-N,4-dimethyl-1-[4-(1-methyl-1H-pyrrol-2-yl)phenyl]-4,5-dihydro-3H-2,3-benzodiazepine-3-carboxamide]"
50 nM,380 nM,"CNC(=O)N1N=C(c2ccc(-c3ccc(C)nc3)cc2)c2cc(OC)c(OC)cc2CC1C (racemic) [Example 117, (±)-7,8-dimethoxy-N,4-dimethyl-1-[4-(6-methylpyridin-3-yl)phenyl]-4,5-dihydro-3H-2,3-benzodiazepine-3-carboxamide]"
70 nM,500 nM,"CNC(=O)N1N=C(c2ccc(-c3ccc(S(=O)(=O)NC4CC4)cc3)cc2)c2cc(OC)c(OC)cc2CC1C (racemic) [Example 118, (±)-1-[4′-(cyclopropylsulphamoyl)-biphenyl-4-yl]-7,8-dimethoxy-N,4-dimethyl-4,5-dihydro-3H-2,3-benzodiazepine-3-carboxamide]"
90 nM,410 nM,"CNC(=O)N1N=C(c2ccc(-c3cc(O)cc(F)c3)cc2)c2cc(OC)c(OC)cc2CC1C (racemic) [Example 119, (±)-1-(3′-fluoro-5′-hydroxybiphenyl-4-yl)-7,8-dimethoxy-N,4-dimethyl-4,5-diliydro-3H-2,3-benzodiazepine-3-carboxamide]"
190 nM,800 nM,"CNC(=O)N1N=C(c2ccc(-c3cc(C)cc(F)c3)cc2)c2cc(OC)c(OC)cc2CC1C (racemic) [Example 120, (±)-1-(3′-fluoro-5′-methylbiphenyl-4-yl)-7,8-dimethoxy-N,4-dimethyl-4,5-dihydro-3H-2,3-benzodiazepine-3-carboxamide]"

# From patent US9890147B2 (BAYER PHARMA AKTIENGESELLSCHAFT, priority 2012, dated 2018)
